Experiments:
Test in all cases: relative viability (nuclei count vs DMSO), 5 days (fraction); higher = more cells survive
[1] = compound: C/C(=N\NC(=S)N1CCC1)/C2=CC=CC=N2 + CCNC(=O)c1noc(-c2cc(C(C)C)c(O)cc2O)c1-c1ccc(CN2CCOCC2)cc1 [Luminespib] (partner 0.01 µM)
Outline: (§1)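 Five library-drug doses in √10 steps were combined with a fixed anchor-drug dose, or a single drug was given alone, by pin tool to lung cancer cell lines in 1536-well plates the day after seeding. Nuclei were stained and counted after 5 days. Relative viability is the nuclei count in treated wells over that in vehicle wells, taken as the median of duplicate plates.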

[2] = compound: C/C(=N\NC(=S)N1CCC1)/C2=CC=CC=N2 + CC(C)C[C@H](NC(=O)[C@H](Cc1ccccc1)NC(=O)c1cnccn1)B(O)O [Bortezomib] (partner 0.002 µM)
Outline: as §1

[3] = compound: C/C(=N\NC(=S)N1CCC1)/C2=CC=CC=N2 + Cc1nc(Nc2ncc(C(=O)Nc3c(C)cccc3Cl)s2)cc(N2CCN(CCO)CC2)n1 [Dasatinib] (partner 0.075 µM)
Outline: as §1

[4] = compound: C/C(=N\NC(=S)N1CCC1)/C2=CC=CC=N2 + CC(=O)c1c(C)c2cnc(Nc3ccc(N4CCNCC4)cn3)nc2n(C2CCCC2)c1=O [Palbociclib] (partner 0.5 µM)
Outline: as §1

Cell Line	relative viability ([1]; first compound 0.05 µM)	relative viability ([1]; first compound 0.1581 µM)	relative viability ([1]; first compound 0.5 µM)	relative viability ([1]; first compound 1.581 µM)	relative viability ([1]; first compound 5 µM)	relative viability ([2]; first compound 0.05 µM)	relative viability ([2]; first compound 0.1581 µM)	relative viability ([2]; first compound 0.5 µM)	relative viability ([2]; first compound 1.581 µM)	relative viability ([2]; first compound 5 µM)	relative viability ([3]; first compound 0.05 µM)	relative viability ([3]; first compound 0.1581 µM)	relative viability ([3]; first compound 0.5 µM)	relative viability ([3]; first compound 1.581 µM)	relative viability ([3]; first compound 5 µM)	relative viability ([4]; first compound 0.05 µM)	relative viability ([4]; first compound 0.1581 µM)	relative viability ([4]; first compound 0.5 µM)	relative viability ([4]; first compound 1.581 µM)	relative viability ([4]; first compound 5 µM)
NCI-H661	0.246	0.221	0.212	0.202	0.219	0.213	0.2	0.185	0.217	0.185	0.196	0.223	0.197	0.2	0.212	0.284	0.252	0.251	0.231	0.223
NCI-H1993	0.455	0.496	0.517	0.428	0.509	0.431	0.506	0.463	0.406	0.483	0.433	0.525	0.525	0.434	0.435	0.345	0.36	0.349	0.405	0.377
NCI-H1437	0.238	0.215	0.216	0.18	0.14	0.121	0.137	0.0867	0.0717	0.0851	0.0967	0.128	0.0689	0.0833	0.122	0.183	0.175	0.163	0.129	0.111
UMC-11	0.207	0.194	0.199	0.184	0.176	0.175	0.173	0.141	0.141	0.101	0.231	0.186	0.153	0.138	0.146	0.155	0.139	0.238	0.213	0.169
201T	0.394	0.394	0.35	0.322	0.256	0.527	0.612	0.418	0.394	0.348	0.324	0.29	0.282	0.232	0.216	0.27	0.351	0.307	0.213	0.205
ChaGo-K-1	0.167	0.172	0.174	0.139	0.161	0.285	0.462	0.285	0.221	0.318	0.137	0.178	0.17	0.131	0.168	0.144	0.408	0.144	0.132	0.148
NCI-H1650	0.182	0.185	0.2	0.168	0.174	0.177	0.2	0.182	0.188	0.168	0.154	0.172	0.167	0.157	0.183	0.17	0.119	0.138	0.138	0.163
LOU-NH91	0.257	0.293	0.274	0.185	0.264	0.435	0.443	0.501	0.37	0.387	0.35	0.37	0.27	0.367	0.382	0.486	0.526	0.496	0.388	0.389

From the supplement of paper PMC10307832
